Where a SMILES comes first, the peptide text is derived from it. Bridges are numbered along the chain shown (N, C = ends). Where no end group is shown, it is not given here. [ ]: non-standard residue; d: D form. The star is where a group is joined. R8 = C=CCCCCCC[C@@](C)(N)C(=O)O; S5 = C=CCCC[C@](C)(N)C(=O)O; dNle = CCCC[C@@H](N)C(=O)O; Nle = CCCC[C@H](N)C(=O)O; Octanoyl = CCCCCCCC(=O)*; Sar = CNCC(=O)O

In one series the target is T1, Pepsin A (Sus scrofa, UniProt P00791).
T1 construct: purchased Sigma Aldrich P6887-1G
Nature of the series: LPL activation ability following pepsin treatment. The following applies: 1 mg/ml Pepsin A, pH 1.92, 1 hour at 37° C.; final concentration 10 µM of peptides. It counts as in vitro ADME. How it is done:
(§1) LPL activity was determined by measuring the generation of NEFA. In a 96-well plate, 0-10 μM of an apoC-II mimetic peptide, 7.45 nM of LPL from bovine milk (Sigma-Aldrich), apoC-II deficient ethylenediaminetetraacetic acid (EDTA)-plasma (diluted with PBS to a final TG concentration of 3 mg/dL), 10 IU/ml heparin, 1% bovine serum albumin (BSA) (ICN Biomedicals), and PBS (Life Technologies) were combined in a final reaction volume of 50 μL, pre-incubated on ice for 30 minutes, and incubated at 37° C. for 1 hour. NEFA were measured with a coupled enzyme reaction (FUJIFILM Wako Diagnostics), in a SpectraMax Plus 384 Microplate Reader.
Peptide resistance to proteolysis was also tested. Peptides at 0.1 mM concentration were incubated at 37° C. in 20 mM ammonium bicarbonate buffer at pH 8.2 with 10 μg/ml trypsin or […] Proteinase K. The amount of intact peptide was monitored over 24-hour time period by MALDI-TOF using internal standards (Bombesin, ACTH (1-17), ACTH (18-39), and Insulin) to quantify the relative amount of peptide in each sample. As shown in FIGS. 16A-16D, the tested peptides had varying degrees of resistance to trypsin and proteinase K. In addition, peptides were tested for LPL activation ability following pepsin treatment. Peptides (1 mM stock) were prepared in 5 mM TRIS, pH 8.2. […] In vitro generated NEFA were measured by the colorimetric assay.

The target in a further series is T2, LPL from bovine milk (Bos taurus, UniProt P11151).
T2 construct: 7.45 nM of LPL from bovine milk (Sigma-Aldrich); purchased Sigma-Aldrich; host or cells: bovine milk
T2 sequence (P11151 29-478): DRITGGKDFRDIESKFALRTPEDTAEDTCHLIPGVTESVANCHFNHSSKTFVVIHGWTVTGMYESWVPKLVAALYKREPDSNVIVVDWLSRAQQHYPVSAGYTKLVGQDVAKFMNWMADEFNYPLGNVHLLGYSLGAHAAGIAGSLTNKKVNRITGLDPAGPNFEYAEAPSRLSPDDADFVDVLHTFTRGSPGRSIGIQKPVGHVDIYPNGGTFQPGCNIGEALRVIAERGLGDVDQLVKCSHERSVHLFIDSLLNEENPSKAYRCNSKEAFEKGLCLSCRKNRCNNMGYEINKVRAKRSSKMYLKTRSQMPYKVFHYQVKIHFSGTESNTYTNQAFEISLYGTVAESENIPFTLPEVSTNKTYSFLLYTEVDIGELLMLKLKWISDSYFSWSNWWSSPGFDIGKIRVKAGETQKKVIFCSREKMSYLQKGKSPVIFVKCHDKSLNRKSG
Nature of the series: LPL activation assay (generation of NEFA). The following applies: 0-10 μM peptide, 7.45 nM LPL, apoC-II deficient plasma, 37° C. for 1 hour, NEFA measured. Format: biochemical. How it is done:
as §1

The nature of series [1]: DMPC vesicle solubilization assay. The following applies: 0.5 mM peptides, DMPC vesicles 0.5 mg/mL in PBS pH 7.4, absorbance at 660 nm for 1 hour at 24° C. How it is done: Tested peptides were able to solubilize DPMC vesicles (FIG. 15). […] PBS as a negative control or 1% Triton as a positive control or 0.5 mM peptides were added to homogenous DMPC (Avanti 850345C) vesicles (0.5 mg/mL) in PBS, pH 7.4. In vitro turbidity change was monitored by following the absorbance at 660 nm for 1 hour at 24° C. Absorbance over time was plotted and the areas under the curve (AOC) were calculated.

Another series relates to apoC-II knockout mice. Nature of the series: Peptide activity in vivo in apoC-II knockout mice. The following applies: single intraperitoneal injection 5 μmole/kg, blood at 1, 3, 6 and 24 hours; for triglycerides: compared to control. How it is done:
A study was performed comparing the effect of D6-PV (SEQ ID NO: 15) and SPH2S (SEQ ID NO: 5) peptides in apoC-II knockout mice. Mice were given a single intraperitoneal injection of the peptide (5 μmole/kg) and blood was collected at 1 hour, 3 hours, 6 hours and 24 hours after injection. Triglycerides, total cholesterol, and non-esterified fatty acids (NEFA) were measured.

T1 sequence (P00791 60-385): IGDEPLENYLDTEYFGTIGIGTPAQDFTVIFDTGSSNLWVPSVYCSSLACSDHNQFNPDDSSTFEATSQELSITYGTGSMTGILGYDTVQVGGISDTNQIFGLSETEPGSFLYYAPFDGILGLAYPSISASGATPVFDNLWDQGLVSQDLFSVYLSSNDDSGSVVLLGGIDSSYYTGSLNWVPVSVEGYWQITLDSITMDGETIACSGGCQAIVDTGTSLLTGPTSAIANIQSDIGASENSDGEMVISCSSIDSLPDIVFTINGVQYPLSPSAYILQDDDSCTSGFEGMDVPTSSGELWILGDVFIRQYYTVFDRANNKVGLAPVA

Consider `CCCC[C@H](NC(=O)[C@H](C)N)C(=O)N[C@]1(C)CCCCCCC=CCCCC2(CCCC=CCCCCCC[C@@](C)(C(=O)N[C@@H](CCCCN)C(=O)N(C)CC(=O)N[C@H](CCC(=O)O)C(=O)N[C@H](CCC(=O)O)C(=O)O)NC(=O)[C@H](C(C)C)NC(=O)[C@H](CO)NC(=O)[C@H](CC(C)C)NC(=O)[C@H](C(C)C)NC(=O)[C@H](CCC(N)=O)NC(=O)[C@H](CC(=O)O)NC2=O)NC(=O)[C@H](Cc2ccccc2)NC(=O)[C@H]([C@@H](C)CC)NC(=O)CNC(=O)[C@H]([C@@H](C)O)NC(=O)[C@H](Cc2ccc(O)cc2)NC(=O)[C@H]([C@@H](C)O)NC1=O` (stereo partly drawn) [SEQ ID NO: 18, A(Nle)(R8)TYTGIF(B5)DQVLSV(S8)K(Sarcosine)ee-COOH], for which the “LPL activation after pepsin treatment” value on Pepsin A was “showed resistance to pepsin treatment”.
As to `CCCC[C@H](NC(=O)[C@H](C)NC(C)=O)C(=O)N[C@]1(C)CCCCCCC=CCCC[C@@](C)(C(=O)N[C@@H](CC(=O)O)C(=O)N[C@@H](CCC(N)=O)C(=O)N[C@H](C(=O)N[C@@H](CC(C)C)C(=O)N[C@@H](CO)C(=O)N[C@H](C(=O)N[C@@H](CC(C)C)C(=O)N[C@@H](CCCCN)C(=O)N(C)CC(=O)N[C@H](CCC(=O)O)C(=O)N[C@H](CCC(=O)O)C(=O)O)C(C)C)C(C)C)NC(=O)[C@H](Cc2ccccc2)NC(=O)[C@H]([C@@H](C)CC)NC(=O)CNC(=O)[C@H]([C@@H](C)O)NC(=O)[C@H](Cc2ccc(O)cc2)NC(=O)[C@H]([C@@H](C)O)NC1=O` [SEQ ID NO: 34, Ac-A(Nle)(R8)TYTGIF(S5)DQVLSVLK(Sarcosine)ee] (Ac-A[Nle][R8]TYTGIF[S5]DQVLSVLK[Sar][dE][dE]-OH; staple 3-10; C-terminus assumed), the “efficacy for activation of LPL” value at LPL from bovine milk is “did not affect LPL activation”. The “LPL activation after pepsin treatment” value on Pepsin A is “showed resistance to pepsin treatment”.
“AMSTYTGIFTDQVLSVLKGEE [SEQ ID NO: 14, truncated ApoC-II peptide]”: the “solubilization of DMPC vesicles” value in series [1] is given as “did not”.
As for “DYLKEVFEKLRDLYEKFTPAVSTYTGIFTDQVLSVLKGEE [SEQ ID NO: 15, control D6-PV peptide, reference compound]”, in the series with apoC-II knockout mice, the triglycerides entry is reported as “decreased triglycerides to a similar extent”.
With “EK(R8)RDLYSK(S5)TAAFSTYFGIFTDQVLSVLKGEE (EK[R8]RDLYSK[S5]TAAFSTYFGIFTDQVLSVLKGEE; staple 3-10) [SEQ ID NO: 25]”, in the series with LPL from bovine milk, the “efficacy for activation of LPL” value is listed as “did reduce the efficacy”.
The same measure, in the same setting: next, “EK(R8)RDLYSK(S5)TAAFSTYTFIFTDQVLSVLKGEE (EK[R8]RDLYSK[S5]TAAFSTYTFIFTDQVLSVLKGEE; staple 3-10) [SEQ ID NO: 26]”: “did not affect peptide efficacy”.
For “Octanoic -A(Nle)(R8)TYTGIF(S5)DQVLSVLK(Sarcosine)ee [SEQ ID NO: 37]”, in the series with LPL from bovine milk, the “efficacy for activation of LPL” value is “did not affect LPL activation”.
Regarding “Octanoic-(R8)TYTGIF(S5)DQVLSVLK(Sarcosine)eeee (Octanoyl-[R8]TYTGIF[S5]DQVLSVLK[Sar][dE][dE][dE][dE]; staple 1-8) [SEQ ID NO: 39]”, the “efficacy for activation of LPL” value with LPL from bovine milk was “decreased peptide activity”.
For the molecule “STAAM(R8)TYTGIF(S5)DQVLSVLKGEE (STAAM[R8]TYTGIF[S5]DQVLSVLKGEE; staple 6-13) [SEQ ID NO: 5]”, the “efficacy for activation of LPL” value with LPL from bovine milk is on record as “increased efficacy”. In addition, in the series on apoC-II knockout mice, the “non-esterified fatty acids (NEFA)” value is reported as “more effective than D6-PV”, the total cholesterol result is given as “more effective than D6-PV at decreasing total cholesterol” and the triglycerides entry is listed as “decreased triglycerides to a similar extent”.
As to “a(nle)(R8)TYTGIF(S5)DQVLSVLK(Sarcosine)ee ([dA][dNle][R8]TYTGIF[S5]DQVLSVLK[Sar][dE][dE]; staple 3-10) [SEQ ID NO: 35]”, the “efficacy for activation of LPL” value with LPL from bovine milk is reported as “decreased LPL activation abilities”.
On the same count and under the same terms, next, “a(nle)(R8)TYTGIF(S5)DQVLSVLk(Sarcosine)ee ([dA][dNle][R8]TYTGIF[S5]DQVLSVL[dK][Sar][dE][dE]; staple 3-10) [SEQ ID NO: 36]”: “decreased LPL activation abilities”.
